Measured values taken from PMC5086919, “Antileukemic Scalarane Sesterterpenoids and Meroditerpenoid from Carteriospongia (Phyllospongia) sp., Induce Apoptosis via Dual Inhibitory Effects on Topoisomerase II and Hsp90” (Scientific Reports, 2016).
In brackets after ≈: the same amount, converted by molar mass. Where two headings read alike, the source gives them in different places.

Experiments:
[1] = test system: Cal-27 cells; experiment: MTT antiproliferative assay, oral Cal-27 cells; details: Homo sapiens, CAL-27, 72 h, read-out: IC50, cytotoxicity, Oral Cal-27
From the text: (§2) Several cancer cell lines including leukemia K562, Molt 4, and HL 60 cells, prostate cancer LNCaP cells, colon cancer DLD-1 cells and breast cancer T-47D cells were used to evaluate the antiproliferative activity.
(§3) The cell lines were obtained from the American Type Culture Collection (ATCC, Manassas, VA, USA). […] Dimethyl sulfoxide (DMSO), 3-(4,5-dimethylthiazol-2-yl)-2,5-diphenyl-tetrazolium bromide (MTT) and all other chemicals were purchased from Sigma-Aldrich (St. Louis, MO, USA).

[2] = test system: T-47D cells; experiment: MTT antiproliferative assay, breast cancer T-47D cells; details: Homo sapiens, T47D, 72 h, read-out: IC50, cytotoxicity, Breast T-47D
From the text: as §2, §3

[3] = test system: γH2AX in Molt 4 cells; experiment: Western blot of γH2AX (DNA damage biomarker); type: cell-based, human; details: 0, 0.0625, 0.125 and 0.25 μg/mL, 24 h
From the text: (§1) The ability of Topo II to generate DNA damage in the presence of Topo II-targeting agents led to the hypothesis that an important determinant of drug sensitivity was related to the overall level of Topo II[17]. […] Such findings encouraged us to evaluate the effect of the isolates on Topo II activity. In order to confirm whether the DNA damage-induced by the isolated sesterterpenoids involved the inhibition of Topo II activity, a cell-free DNA cleavage assay using an enzyme-mediated negatively supercoiled pHOT1 plasmid DNA was applied. […] These marine terpenoids suppressed Topo II activity, resulting in the inhibition of supercoiled DNA relaxation in a dose-dependent manner (Fig. 5A). […] To determine whether the apoptotic mechanism of these compounds affects γH2AX (as a biomarker of DNA damage) induction, Western blot analysis was employed to examine the activation of γH2AX.
Cell lysates were prepared by treating the cells for 30 min in RIPA lysis buffer, 1% Nonidet P-40, 0.5% sodium deoxycholate, 0.1% sodium dodecyl sulphate (SDS), 1 mM sodium orthovanadate, 100 μg/mL phenylmethylsulfonyl fluoride and 30 μg/mL aprotinin) (all chemicals were from Sigma)[38]. The lysates were centrifuged at 20,000 × g for 30 min, and the protein concentration in the supernatant was determined using a BCA protein assay kit (Pierce). Equal amounts of proteins were respectively separated by 7.5%, 10% or 12% of SDS-polyacrylamide gel electrophoresis and then were electrotransferred to a PVDF membrane. The membrane was blocked with a solution containing 5% non-fat dry milk TBST buffer (20 mM Tris-HCl, pH 7.4, 150 mM NaCl and 0.1% Tween 20) for 1 h and washed with TBST buffer. The protein expressions were monitored by immunoblotting using specific antibodies. These proteins were detected by an enhanced chemiluminescence kit (Pierce).

[4] = test system: Molt 4 cells; experiment: MTT antiproliferative assay, leukemia Molt 4 cells; type: cell-based; details: Homo sapiens
[5] = test system: Ca9-22 cells; experiment: MTT antiproliferative assay, oral Ca9-22 cells; details: Homo sapiens, Ca9-22, 72 h, read-out: IC50, cytotoxicity, Oral Ca9-22
From the text: as §2, §3

[6] = test system: LNCaP cells; experiment: MTT antiproliferative assay, prostate cancer LNCaP cells; details: Homo sapiens, 72 h
From the text: as §2, §3

[7] = test system: DLD-1 cells; experiment: MTT antiproliferative assay, colon cancer DLD-1 cells; details: Homo sapiens, DLD-1, 72 h, read-out: IC50, cytotoxicity, Colon DLD-1
From the text: as §2, §3

[8] = test system: HL 60 cells; experiment: MTT antiproliferative assay, leukemia HL 60 cells; details: Homo sapiens, HL-60, 72 h, read-out: IC50, cytotoxicity, Leukemia HL 60
From the text: as §2, §3

[9] = test system: U937 cells; experiment: MTT antiproliferative assay, lymphoma U937 cells; details: Homo sapiens, U-937, 72 h, read-out: IC50, cytotoxicity, Lymphoma U937
[10] = test system: Molt 4 cells; experiment: MMP disruption, JC-1 staining flow cytometry; type: cell-based, human; details: 0, 0.0625, 0.125 and 0.25 μg/mL, 24 h
Protocol: These assays were performed as described previously. […] In brief, the treated cells were labeled with a specific fluorescent dye for 30 min. After labeling, cells were washed with PBS and resuspended in PBS at a concentration of 1 × 10^6 cells/mL before analysis via flow cytometry.

[11] = test system: Molt 4 cells; experiment: Annexin V/PI apoptosis assay; type: cell-based, human; details: 0, 0.0625, 0.125 and 0.25 μg/mL, 24 h, annexin-V/PI
Protocol: The externalization of phosphatidylserine (PS) and membrane integrity were quantified using an annexin V- FITC staining kit[72]. In brief, 10^6 cells were grown in 35 mm diameter plates and were labeled with annexin V-FITC (10 μg/mL) and PI (20 μg/mL) prior to harvesting. After labeling, all plates were washed with a binding buffer and harvested. Cells were resuspended in the binding buffer at a concentration of 2 × 10^5 cells/mL before analysis by flow cytometer FACS-Calibur (Becton-Dickinson, San Jose, CA, USA) and CellQuest software. Approximately 10,000 cells were counted for each determination.

[12] = biological target: T1, human topoisomerase II (Homo sapiens, UniProt P11388); experiment: Cell-free topoisomerase II DNA relaxation/cleavage assay with supercoiled pHOT1 plasmid DNA; type: biochemical; details: for inhibition at 0.08 µg/mL: 0.08 μg/mL; for inhibition at 0.08 µg/mL / inhibition at 0.312 µg/mL / inhibition at 1.25 µg/mL / inhibition at 5 µg/mL / inhibition at 20 µg/mL: compared with control supercoiled DNA; for inhibition at 0.312 µg/mL: 0.312 μg/mL; for inhibition at 1.25 µg/mL: 1.25 μg/mL; for inhibition at 5 µg/mL: 5 μg/mL; for inhibition at 20 µg/mL: 20 μg/mL
T1 construct: purchased Topogen
From the text: as §1
The assay was performed as described previously. […] Reactions were terminated by adding 2 μL of 10% SDS to facilitate trapping the enzyme in a cleavage complex, followed by the addition of 2.5 μL of proteinase K (50 μg/mL) to digest the bound protein (incubated at 37 °C for 15 min) and finally by adding 0.1 volume of the sample loading dye. The DNA products were analyzed via electrophoresis through vertical 2% agarose gels at 2 voltage/cm in 0.5 × TAE buffer. Gels were stained with ethidium bromide and photographed using an Eagle Eye II system (Stratagene, La Jolla, CA, USA). The quantitative analysis of the DNA Topo II activity was performed as described previously.

[13] = test system: Sup-T1 cells; experiment: MTT antiproliferative assay, lymphoma Sup-T1 cells; details: Homo sapiens, SUP-T1, 72 h, read-out: IC50, cytotoxicity, Lymphoma Sup-T1
[14] = test system: K562 cells; experiment: MTT antiproliferative assay, leukemia K562 cells; details: Homo sapiens, K562, 72 h, read-out: IC50, cytotoxicity, Leukemia K562
From the text: as §2, §3

[15] = test system: human Molt 4 tumor xenograft; experiment: Human leukemia Molt 4 tumor xenograft animal model; type: in vivo, immunodeficient athymic mice
From the text: Compounds 1 and 2 induced apoptosis in several cancer cell lines; however, the amounts isolated were insufficient for further examination of their in vivo antitumor effect. On the other hand, the amount separated from 3 was sufficient to study the in vivo anti-tumor activity by evaluating its effect on tumor growth of human leukemia Molt 4 in xenograft animal model. Molt 4 (1 × 10^6) cells were inoculated subcutaneously at the right flank of female immunodeficient athymic mice. […] The average tumor size on day 33 in the control group was 404.63 mm^3, whereas the average tumor size in compound 3-treated group was 212.10 mm^3 (Fig. 6A).
Establishment of nude mice with xenografts was performed as described previously. Six-week-old […] immunodeficient athymic mice were purchased from the National Laboratory Animal and Research Center (Taipei, Taiwan). All of the animals were maintained under standard laboratory conditions (temperature 24–26 °C, 12–12 h dark-light circle) and fed with laboratory diet and water. This study was approved by the Animal Care and Treatment Committee of Kaohsiung Medical University (IACUC Permit Number 101136). All experiments were conducted in strict accordance with the recommendations in the Guide for the Care and Use of Laboratory Animals of the National Institutes of Health, and all efforts were made to minimize animal stress/distress. Molt 4 cells (1 × 10^6) resuspended in 0.2 mL PBS were injected s.c. into the right flank of each mouse, and tumor growth was monitored every day. Fourteen days after tumor cell injection, mice with confirmed tumor growth were randomly divided into two groups. Compound 3 (1.14 μg/g) was intraperitoneally administered to the treatment group, and the control group received solvent only. Compound 3 was administrated every other day for 33 days. Animals were sacrificed by carbon dioxide. Tumor size was measured three times a week using calipers and tumor volumes were calculated according to the standard formula: width^2 × length/2.

[16] = 72 h, read-out: IC50, cytotoxicity, Leukemia Molt 4
[17] = read-out: IC50, cytotoxicity, Prostate LNCaP (class symbol)

T1 sequence (P11388 whole entry): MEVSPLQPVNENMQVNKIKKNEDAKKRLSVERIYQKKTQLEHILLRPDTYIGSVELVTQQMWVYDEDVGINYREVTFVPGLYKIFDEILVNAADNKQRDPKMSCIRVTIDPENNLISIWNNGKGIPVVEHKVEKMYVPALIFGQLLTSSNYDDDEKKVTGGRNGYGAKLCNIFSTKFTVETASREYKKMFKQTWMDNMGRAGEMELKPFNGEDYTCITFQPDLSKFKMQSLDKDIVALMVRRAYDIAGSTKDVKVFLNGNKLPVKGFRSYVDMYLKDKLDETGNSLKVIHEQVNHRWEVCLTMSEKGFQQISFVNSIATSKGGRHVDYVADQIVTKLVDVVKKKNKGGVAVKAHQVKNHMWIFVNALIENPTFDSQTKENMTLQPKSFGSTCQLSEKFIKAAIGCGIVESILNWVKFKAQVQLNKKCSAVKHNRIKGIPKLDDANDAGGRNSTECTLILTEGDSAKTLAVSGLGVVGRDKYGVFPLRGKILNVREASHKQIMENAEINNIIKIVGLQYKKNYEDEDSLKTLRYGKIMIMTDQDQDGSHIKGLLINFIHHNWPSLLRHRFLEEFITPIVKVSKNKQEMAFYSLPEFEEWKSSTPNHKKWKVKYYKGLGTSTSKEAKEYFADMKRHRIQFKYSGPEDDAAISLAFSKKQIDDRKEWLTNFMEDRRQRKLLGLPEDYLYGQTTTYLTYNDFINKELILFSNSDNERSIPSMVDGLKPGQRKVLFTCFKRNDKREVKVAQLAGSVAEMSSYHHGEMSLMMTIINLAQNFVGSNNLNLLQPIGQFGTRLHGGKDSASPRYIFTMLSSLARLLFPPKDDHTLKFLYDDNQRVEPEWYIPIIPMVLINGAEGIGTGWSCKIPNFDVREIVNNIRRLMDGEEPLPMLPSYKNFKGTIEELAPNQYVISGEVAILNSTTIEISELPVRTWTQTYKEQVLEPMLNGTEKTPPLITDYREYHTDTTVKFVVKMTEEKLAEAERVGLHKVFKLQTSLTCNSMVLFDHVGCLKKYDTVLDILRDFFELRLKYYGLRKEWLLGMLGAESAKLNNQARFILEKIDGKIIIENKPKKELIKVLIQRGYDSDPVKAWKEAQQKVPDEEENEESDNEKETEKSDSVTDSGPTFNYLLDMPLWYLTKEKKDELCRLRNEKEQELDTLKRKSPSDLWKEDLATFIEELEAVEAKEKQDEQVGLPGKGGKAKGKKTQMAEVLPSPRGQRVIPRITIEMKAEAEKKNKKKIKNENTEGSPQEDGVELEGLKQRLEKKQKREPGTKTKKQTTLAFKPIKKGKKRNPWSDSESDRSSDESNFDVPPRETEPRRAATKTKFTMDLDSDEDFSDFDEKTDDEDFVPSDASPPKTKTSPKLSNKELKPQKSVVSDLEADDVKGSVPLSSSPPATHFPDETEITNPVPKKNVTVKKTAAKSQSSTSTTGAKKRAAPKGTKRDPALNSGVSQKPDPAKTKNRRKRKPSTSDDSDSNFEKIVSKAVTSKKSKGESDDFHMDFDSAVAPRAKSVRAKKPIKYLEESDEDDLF

Structure (SMILES)	IC50 [1] [µg/mL]	IC50 [2] [µg/mL]	expression of γH2AX [3]	IC50 [4, 16] [µg/mL]	IC50 [5] [µg/mL]	IC50 [6, 17] [µg/mL]	IC50 [7] [µg/mL]	IC50 [8] [µg/mL]	IC50 [9] [µg/mL]	mitochondrial membrane potential [10]	apoptotic population of Molt 4 cells [11]	inhibition at 0.08 µg/mL [12] [%]	inhibition at 0.312 µg/mL [12] [%]	inhibition at 1.25 µg/mL [12] [%]	inhibition at 5 µg/mL [12] [%]	inhibition at 20 µg/mL [12] [%]	IC50 [13] [µg/mL]	IC50 [14] [µg/mL]	further results
CC[C@@H](O)CC(=O)O[C@@H]1C[C@@H]2[C@@]3(C)CCC[C@](C)(CC)[C@@H]3CC[C@@]2(C)[C@@H]2CC=C(C(C)=O)[C@H](C=O)[C@@]12C (relative stereo) [Compound 2, 12β-(3′β-hydroxy-pentanoyloxy)-20,24-dimethyl-24-oxo-scalara-16-en-25-al]	3.17 (≈ 6.16 µM)	1.87 (≈ 3.63 µM)	significantly enhanced the expression of γH2AX in a dose-dependent manner	0.3	1.48 (≈ 2.88 µM)	> 20	1.71 (≈ 3.32 µM)	0.22 (≈ 0.427 µM)	0.61 (≈ 1.19 µM)	disruption in mitochondrial membrane potential	increase in the apoptotic population	12	23	36	90	99	0.42 (≈ 0.816 µM)	0.35 (≈ 0.68 µM)	
CC(C)=CCC/C(C)=C/CC/C(C)=C/CC/C(C)=C/CC1=CC(=O)C=CC1=O [Compound 3, 2-tetraprenil-1,4-benzochinone]	0.51 (≈ 1.34 µM)	1.06 (≈ 2.79 µM)	activation of DNA damage was not observed	0.34	0.97 (≈ 2.55 µM)	> 20	15.4 (≈ 40.5 µM)	0.42 (≈ 1.1 µM)	0.65 (≈ 1.71 µM)	disruption in mitochondrial membrane potential	increase in the apoptotic population	7	13	28	90	98	0.33 (≈ 0.867 µM)	0.7 (≈ 1.84 µM)	mice body weights versus control group ([15]; 1.14 μg/g intraperitoneal, 33 days): no significant difference; average tumor size on day 33 ([15]; 1.14 μg/g intraperitoneal, every other day, 33 days): 212.10 mm^3; suppression of the volume of xenograft tumor growth compared with the control ([15]; Molt 4 xenograft): 47.58%; IC50 ([12]; cell-free system, read-out: IC50, inhibition of topo II activities (converted)): 1.13 µM
C=CCNC1=C2C[C@@H](C)C[C@H](OC)[C@H](O)[C@@H](C)/C=C(\C)[C@H](OC(N)=O)[C@@H](OC)/C=C\C=C(/C)C(=O)NC(=CC1=O)C2=O [Compound 17-AAG, 17-allylamine-17-demethoxygeldanamycin, reference compound]																			IC50 ([4]; 24 h, molar value in brackets, read-out: IC50, suppression in cell growth, Molt 4): 7.2 µM; IC50 ([4]; 24 h, read-out: IC50, suppression in cell growth, Molt 4): 4.2 µg/mL
COc1cccc2c1C(=O)c1c(O)c3c(c(O)c1C2=O)C[C@@](O)(C(=O)CO)C[C@@H]3O[C@H]1C[C@H](N)[C@H](O)[C@H](C)O1 [Doxorubicin, reference compound]	0.01 (≈ 0.0184 µM)	0.08 (≈ 0.147 µM)		0.01	0.05 (≈ 0.092 µM)		1.28 (≈ 2.35 µM)	0.02 (≈ 0.0368 µM)	0.21 (≈ 0.386 µM)								0.02 (≈ 0.0368 µM)	0.2 (≈ 0.368 µM)	IC50 ([6]; read-out: IC50, cytotoxicity, Prostate LNCaP): 2.47 µg/mL (≈ 4.54 µM)
COc1cc([C@@H]2c3cc4c(cc3[C@@H](O[C@@H]3O[C@@H]5CO[C@@H](C)O[C@H]5[C@H](O)[C@H]3O)[C@H]3COC(=O)[C@H]23)OCO4)cc(OC)c1O [etoposide, reference compound]																			DNA product with topo II poison ([12]; 500 μM, positive control, Lane 16): linear DNA strand was observed
